Usually EC50 stands for the concentration that produces a half-maximal response.

Drawing on patent US10457707B2, “Substituted urea depsipeptide analogs as activators of the CLPP endopeptidase” (priority 2015, dated 2019), this text covers EC50 and MIC for three molecules.

SMILES strings stand for the structures. In brackets after ≈: the same amount, converted by molar mass. Where two headings read alike, the source gives them in different places. *1 amine or outer side, *2 acyl side, *3 side chain or, on linkers, in order; H or OH if unused. Where a SMILES comes first, the peptide text is derived from it. Bridges are numbered along the chain shown (N, C = ends). [ ]: non-standard residue; d: D form. The star is where a group is joined. ξ: configuration not given here. Piperazine(2S-CO,4-Me) = CN1CCN[C@H](C(=O)O)C1; Phe(3,5-F2) = N[C@@H](Cc1cc(F)cc(F)c1)C(=O)O; NH(4-Cl-2-F-phenyl) = Fc1cc(Cl)ccc1N*; Pro(4R-Me) = C[C@H]1CN[C@H](C(=O)O)C1; Hyp = O=C(O)[C@@H]1C[C@@H](O)CN1; NH(4-Me-phenyl) = Cc1ccc(N*)cc1; ξNMeThr = CNC(C(=O)O)[C@@H](C)O; aThr = C[C@H](O)[C@H](N)C(=O)O; Pip = O=C(O)[C@@H]1CCCCN1; CO = O=C([*:1])[*:2]

Assay [1] addresses T1, Sa-ClpP (Staphylococcus aureus, UniProt Q2G036).
T1 construct: made in house; host or cells: E. coli BL21(DE3)
T1 sequence (Q2G036 1-195): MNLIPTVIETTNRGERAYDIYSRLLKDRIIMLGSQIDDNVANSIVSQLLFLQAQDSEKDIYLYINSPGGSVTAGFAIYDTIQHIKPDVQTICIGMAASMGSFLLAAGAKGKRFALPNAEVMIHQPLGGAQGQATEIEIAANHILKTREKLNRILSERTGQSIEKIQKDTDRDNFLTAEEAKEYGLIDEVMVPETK
Put plainly: Sa-ClpP casein-BODIPY ClpP activation assay, method variant not marked in Table 5. In kind it is biochemical, S. aureus. In short, it runs like this: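 Purified S. aureus ClpP (10 μM) incubated with 25 μg/ml BODIPY FL casein and compound (0-1000 μM) in pH 8 Tris/KCl/TCEP at 37° C. Fluorescence (485/528 nm) read every 5 min over 45 min; reaction velocities fitted to dose-response for EC50 (50% activation), triplicate.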

For assay [2], the system named is Enterococcus faecalis, ATCC 33186. Put plainly: Minimal inhibitory concentration assay (microbroth dilution). In kind it is cell-based. In a few lines:
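CLSI broth microdilution: two-fold compound dilutions from 200 μM final, ~10^5 cfu/mL inoculum, aerobic overnight incubation at 37 °C. MIC read visually as lowest concentration preventing growth; S. aureus USA 300 compared with its ClpP-inactivated counterpart to check ClpP dependence.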
(In general: Broth dilution looks for growth in wells or tubes with falling amounts of substance.)

Where [3] appears, read: Enterococcus faecalis, ATCC33186; read-out: Minimal Inhibitory Concentrations E. faecalis ATCC 33186.

Take `Cc1ccc(NC(=O)N[C@@H](Cc2cc(F)cc(F)c2)C(=O)N[C@H]2COC(=O)[C@@H]3C[C@@H](C)CN3C(=O)[C@H](C)NC(=O)C([C@@H](C)O)N(C)C(=O)[C@@H]3CCCN3C2=O)cc1` (stereo partly drawn) [Compound 322, (S)-3-(3,5-difluorophenyl)-N-((2R,6S,9R,11aS,17S,20aS)-9-((R)-1-hydroxyethyl)-2,6,10-trimethyl-5,8,11,16,20-pentaoxohexadecahydro-1H,5H,16H-dipyrrolo[2,1-c:2′,1′-l][1]oxa[4,7,10,13]tetraazacyclohexadecin-17-yl)-2-(3-(p-tolyl)ureido)propanamide] ({NH(4-Me-phenyl)-CO}-[Phe(3,5-F2)]SP[ξNMeThr]A[Pro(4R-Me)]; ester 2-C): the half-maximal effective concentration (EC50) in assay [1] (values without ** or † mark, assay variant not stated, read-out: ClpP Activation EC50) worked out at 560 ± 30 nM. Further, the MIC in assay [2] (Enterococcus faecalis, ATCC33186, read-out: Minimal Inhibitory Concentrations E. faecalis ATCC 33186) is over 20 µM.

In turn, `C[C@@H]1C[C@H]2C(=O)O[C@@H](C)[C@H](NC(=O)[C@H](Cc3cc(F)cc(F)c3)NC(=O)Nc3ccc(Cl)cc3F)C(=O)N3C[C@H](O)C[C@H]3C(=O)N3CCCC[C@H]3C(=O)N[C@@H](C)C(=O)N2C1` [Compound 329, (S)-2-(3-(4-chloro-2-fluorophenyl)ureido)-3-(3,5-difluorophenyl)-N-((2R,6S,8aS,14aS,16R,20S,21S,23aS)-16-hydroxy-2,6,21-trimethyl-5,8,14,19,23-pentaoxooctadecahydro-1H,5H,14H,19H-pyrido[2,1-i]dipyrrolo[2,1-c:2′,1′-l][1]oxa[4,7,10,13]tetraazacyclo-hexadecin-20-yl)propanamide] ({NH(4-Cl-2-F-phenyl)-CO}-[Phe(3,5-F2)][aThr][Hyp][Pip]A[Pro(4R-Me)]; ester 2-C) displayed an EC50 in assay [1] of 400 ± 20 nM. Moreover, in assay [2] (setting [3]), the MIC came out at 0.039 µM (≈ 0.0336 µg/mL).

As to `C[C@@H]1C[C@H]2C(=O)OC[C@H](NC(=O)[C@H](Cc3cc(F)cc(F)c3)NC(=O)Nc3ccc(Cl)cc3F)C(=O)N3CCC[C@H]3C(=O)N3CCN(C)C[C@H]3C(=O)N[C@@H](C)C(=O)N2C1` [Compound 330, (S)-2-(3-(4-chloro-2-fluorophenyl)ureido)-3-(3,5-difluorophenyl)-N-((6aS,12S,15aS,17R,21S,23aS)-2,17,21-trimethyl-6,11,15,20,23-pentaoxooctadecahydro-2H,6H,11H,15H-pyrazino[2,1-i]dipyrrolo[2,1-c:2′,1′-l][1]oxa[4,7,10,13]tetraazacyclohexadecin-12-yl)propanamide] ({NH(4-Cl-2-F-phenyl)-CO}-[Phe(3,5-F2)]SP[Piperazine(2S-CO,4-Me)]A[Pro(4R-Me)]; ester 2-C), a half-maximal effect in assay [1] (EC50) was put at 290 ± 20 nM. Further, the MIC in assay [2] (setting [3]) was under 0.02 µM.
